Read-outs that look alike come from different tables or passages of the source.
Key:
pooled normal plasma [1] = experiment: aPTT clotting assay; type: biochemical, human; details: metal ion with NTA-lipids (100 μM lipid)
Experimental: (§1) The modified aPTT reagent contained varying concentrations of the indicated metal salts, NTA-lipids (100 μM lipid), 0.08% (w/v) sodium azide, and 16 mM Hepes buffer, pH 7.4.
aPTT assays were performed with modified aPTT reagents containing varying concentrations of NiSO4, CoCl2, CuSO4, ZnCl2, FeSO4, CdCl2, CrCl2, AgNO3 or MnCl2 in the presence of NTA-lipids (FIG. 12C). […] Co^2+ and Zn^2+ some activity (see FIG. 12C). […] Ni^2+ performed substantially better in this assay than did Cu^2+.
aPTT clotting assay—aPTT clotting assays were also carried out in a model ST4 coagulometer (Diagnostica Stago). The aPTT assays were performed by pipetting 50 μl of an aPTT reagent and 50 μl pooled normal plasma into a coagulometer cuvette and incubating the mixture for 3 min at 37° C. 50 μl prewarmed 25 mM CaCl2 was then pipetted into the cuvette and the time to clot formation was recorded.

pooled normal plasma [2] = experiment: PT clotting assay with modified thromboplastin reagents; type: biochemical, human; details: for Concentration of TF that yields a 50 sec. clot time: His-tagged sTF with Ni-NTA-DOGS/PCPSPE (SUV with 10 mol % Ni-NTA-DOGS), rTF with PCPS
Experimental: Thromboplastin reagents containing TF and phospholipids were prepared and diluted to various concentrations of TF. The diluted thromboplastin reagents were then used in the PT assay (FIG. 4). The four modified thromboplastin reagents were made as follows: 1. 100 ng/ml rTF relipidated in PCPS vesicles (30 μM), 2. […] The thromboplastin reagents were diluted in TA (50 mM Tris-HCl buffer, pH 7.5, 0.1% bovine serum albumin, 0.1% NaN3) to varying concentrations of TF.
as §1
Thromboplastin reagents—To prepare a conventional thromboplastin reagent, rTF was relipidated into phospholipid vesicles composed of 20 mol % PS, 80 mol % PC (rTF/PCPS) at a 8700:1 molar ratio of phospholipid to rTF as described. rTF/PCPS preparations were then diluted to the desired final rTF concentration in TBSA (50 mM Tris-HCl buffer, pH 7.5, 100 mM NaCl, 0.1% bovine serum albumin, 0.1% NaN3).
(§2) PT clotting assay—PT assays were performed in a model ST4 coagulometer (Diagnostica Stago) by pipetting 50 μl of 25 mM CaCl2 and 50 μl diluted thromboplastin reagent into a coagulometer cuvette and allowing the mixture to warm to 37° C. for 2 min. Clotting was then initiated by pipetting 50 μl pre-warmed, pooled normal plasma into the cuvette and the time to clot formation recorded.

VIIa [3] = biological target: T1, VIIa (Homo sapiens, UniProt P08709); experiment: Kd for VIIa binding to TF (X activation rate as readout)
T1 construct: VIIa or factor VIIa means coagulation factor VIIa (active enzyme); purchased American Diagnostica
T1 sequence (P08709 61-212): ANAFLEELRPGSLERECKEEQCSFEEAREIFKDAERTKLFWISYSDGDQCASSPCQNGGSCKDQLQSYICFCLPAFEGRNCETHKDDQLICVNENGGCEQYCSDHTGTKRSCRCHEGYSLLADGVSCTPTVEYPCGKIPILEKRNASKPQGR
T1 sequence (P08709 213-466): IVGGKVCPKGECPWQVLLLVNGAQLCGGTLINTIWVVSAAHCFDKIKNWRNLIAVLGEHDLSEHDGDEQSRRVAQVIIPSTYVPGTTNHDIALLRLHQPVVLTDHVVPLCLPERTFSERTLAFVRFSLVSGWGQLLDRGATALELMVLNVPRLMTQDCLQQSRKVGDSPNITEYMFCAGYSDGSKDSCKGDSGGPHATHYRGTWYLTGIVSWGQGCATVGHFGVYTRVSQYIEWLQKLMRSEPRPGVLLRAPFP
Experimental: When VIIa binds to TF, its rate of X activation increases dramatically, so this can be used as a convenient readout for TF:VIIa complex formation. […] Therefore, when the isolated TF ectodomain was attached to the membrane surface via interaction with metal-chelating lipids, its VIIa binding ability was indistinguishable from membTF that spanned the lipid bilayer.
Measurement of the Kd for VIIa binding to TF—The binding affinity of VIIa for various forms of TF was measured using the TF-dependent increase in the rate of X activation as the readout for TF:VIIa complex formation. Activation of X by the TF:VIIa complex was measured by adapting the continuous chromogenic assay of Fiore et al.. Reaction mixtures containing Vila and either rTF/PCPS or sTF+SUVs were prepared in HBSAC. Reactions were initiated by adding a mixture of X and the chromogenic substrate, S-2222, in a flat bottom, 96-well plate. Change in A405 was monitored at ambient temperature in a VERSAmax microplate reader (Molecular Devices), sampling every 15 sec for 20 min. Initial rates of X activation were determined by fitting a second-order polynomial to the A405 data as described. The quadratic ligand binding equation was fit to the rate data as described to derive apparent Kd values for the binding of VIIa to TF. For experiments using relipidated rTF, typical reaction mixtures containing 0.25 μM VIIa and 20 nM X in HBSAC were incubated with increasing concentrations of rTF/PCPS.

factor-deficient plasmas = experiment: PT assay with factor-deficient plasmas; type: biochemical, human; details: 3 μg/ml sTF(His)6 with 100 μM 15% Ni-lipid, or commercial reagent
Source text: A major goal was to create a soluble form of TF that can function as a thromboplastin reagent in the PT assays. […] This reagent was then compared in PT assays to a commercially available thromboplastin reagent, STA-Neoplastine CI Plus (Diagnostica Stago). Clotting times with the two reagents were compared using pooled normal plasma as well as a number of factor-deficient plasmas (FIG. 6). (The latter were deficient in factors V, VII, VIII, IX, X, XI, XII, prekallikrein (PK), or high molecular weight kininogen (HK)).
as §2

VIIa [4] = biological target: T2, VIIa (Homo sapiens, UniProt P08709); experiment: Allosteric activation of VIIa (chromogenic assay); type: biochemical; details: compared to sTF and rTF/PCPS; data not shown
T2 construct: VIIa or factor VIIa means coagulation factor VIIa (active enzyme); purchased American Diagnostica
Experimental: Measurement of Allosteric Activation of VIIa—The ability of TF to allosterically activate factor VIIa was carried out measuring the enzymatic activity of factor VIIa by a chromogenic assay. […] The reaction was initiated by the addition of the chromogenic substrate, Chromozym® t-PA (ChtPA) in a flat bottom, 96-well plate. […] Change in A405 was monitored at ambient temperature in a VERSAmax microplate reader (Molecular Devices), reading every 30 seconds for 20 minutes.

X activation by VIIa = biological target: T3, X activation by VIIa (Homo sapiens, UniProt P08709); experiment: Factor X activation using liposomes; type: biochemical; details: sTF-5AA-(His)6 with PCPS liposomes, or sTF with NiPCPS liposomes
T3 construct: VIIa or factor VIIa means coagulation factor VIIa (active enzyme); purchased American Diagnostica
Experimental: A stringent test of TF:VIIa function is its ability to support the activation of its natural protein substrate, X. This requires that TF be incorporated into a suitable phospholipid membrane (i.e., one containing negatively charged phospholipids). […] The ability of various forms of TF to support the activation of X was compared under equivalent concentrations of enzyme (500 pM VIIa), cofactor (4 pM TF) and liposomes (50 μM total lipid).
Factor X activation using liposomes. […] At varying times, 20 μl aliquots were removed into a 96-well plate containing 100 μl Stop Buffer 1 (40 mM Mes-NaOH pH 5.8, 12 mM EDTA, 50 mM NaCl, 0.25% Triton X-100, 0.1% NaN3, 0.012% Antifoam C) at 4° C. After warming the stopped reactions to room temperature, Xa was detected by adding 60 μl of 1.5 mM Spectrozyme Xa in HBSAC plus 0.6 M Tricine-NaOH, pH 8.4 and quantifying change in A405. Amounts of Xa generated were determined by comparison to a standard curve with purified Xa.

[5] = system: pooled normal human plasma; experiment: Clotting assay with immobilized lipids; type: biochemical; details: 200 nmol dried NiPCPSPE per well; 4800 nM
Experimental: Mixtures of DOGS-NTA-Ni and phospholipids were dried-down in the wells of a polystyrene coagulometer cuvette, the cuvettes were washed to remove any non-immobilized lipid, and then sTF-5AA-(His)6 was added to the wells. Clotting tests were subsequently conducted by adding calcium ions and plasma to wells. […] Control experiments were conducted using other lipid compositions, which were all dried down onto the cuvette well at a single amount of lipid per well (200 nmol).
Clotting assay with immobilized lipids—Lipid mixtures in chloroform were first dried down in a borosilicate glass test tube under a gentle stream of dry nitrogen gas to remove the solvent, after which the dried lipids were redissolved in n-hexane at a total lipid concentration of 0.3 to 5.3 mM. Complete lipid mixtures were termed NiPCPSPE and consisted of 10% DOGS-NTA-Ni, 12.5% PS, 30% PE, and 47.5% PC. […]
Each well of an ST4 cuvette received 150 μl of lipid solution in hexane (containing 50 to 800 nmol total lipid per well). […] A 50 μl aliquot of 25 mM CaCl2 was added per well and the cuvettes were incubated for 2 min at 37° C., after which a 50 μl aliquot of pre-warmed (37° C.) pooled normal human plasma was added and the time to clot formation was measured.

VIIa [6] = biological target: T1, VIIa; details: rTF relipidated into PCPS vesicles; literature [4]; read-out: Kd for VIIa binding; cited from earlier work
[7] = ± SEM, sTF and rTF with PCPS, sTF-(His)6 with Ni-NTA-DOGS/PCPSPE (SUV with 15 mol % Ni-NTA-DOGS), read-out: Kd.app for VIIa binding

[Cl-].[Cl-].[Co+2] [Co^2+, CoCl2]
activity in aPTT assay (pooled normal plasma [1]): some activity
PT clotting time shortened to (pooled normal plasma [2]; metal ion added to modified thromboplastin reagent, NTA-lipids, 30 ng/ml sTF-5AA-(His)6): less than 100 sec

O=S(=O)([O-])[O-].[Cu+2] [Cu^2+, CuSO4]
activity in aPTT assay (pooled normal plasma [1]): dramatically shortened the clotting time

O=S(=O)([O-])[O-].[Ni+2] [Ni^2+, NiSO4]
activity in aPTT assay (pooled normal plasma [1]): dramatically shortened the clotting time

[Cl-].[Cl-].[Zn+2] [Zn^2+, ZnCl2]
activity in aPTT assay (pooled normal plasma [1]): some activity
activity in PT assay (pooled normal plasma [2]; metal ion with NTA-lipids (100 μM lipid), 30 ng/ml sTF-5AA-(His)6): some activity

sTF(His)6: oligohistidine-tagged sTF; replaces the final two amino acids of sTF with six histidine residues
Kd (VIIa [3]; read-out: Kd for VIIa binding to the his-tagged sTF variants, 15% Ni-lipid): 0.169 nM
Kd (VIIa [3]; [7]): 0.169 ± 0.015 nM
PT clotting times with plasmas deficient in factors V, VII or X (factor-deficient plasmas): prolonged clotting times
PT sensitivity to deficiencies in clotting factors of the intrinsic pathway (factors VIII, IX, XI, XII, PK, or HK) (factor-deficient plasmas): insensitive
procoagulant activity compared with sTF (pooled normal plasma [2]; PT assay, 10% Ni-lipids): dramatically higher than sTF
Concentration of TF that yields a 50 sec. clot time (pooled normal plasma [2]; PT assay): 45 ng/mL
ability to allosterically activate VIIa (VIIa [4]): able to fully allosterically activate VIIa

sTF: soluble tissue factor, a truncated, soluble form of tissue factor that does not have the membrane-spanning domain nor the cytoplasmic domain [reference compound]
Kd (VIIa [3]; sTF, read-out: Kd for VIIa binding): 7 nM
rates of X activation by VIIa, control combinations (X activation by VIIa): negligible rates of X activation
clotting times compared with sTF-5AA-(His)6 [5]: much longer clotting times

B1: rTF: recombinant, membrane-anchoring tissue factor; rTF/PCPS is rTF relipidated into 20 mol % PS, 80 mol % PC vesicles (protein, UniProt P13726 1-295, looked up)
chain: METPAWPRVPRPETAVARTLLLGWVFAQVAGASGTTNTVAAYNLTWKSTNFKTILEWEPKPVNQVYTVQISTKSGDWKSKCFYTTDTECDLTDEIVKDVKQTYLARVFSYPAGNVESTGSAGEPLYENSPEFTPYLETNLGQPTIQSFEQVGTKVNVTVEDERTLVRRNNTFLSLRDVFGKDLIYTLYYWKSSSSGKKTAKTNTNEFLIDVDKGENYCFSVQAVIPSRTVNRKSTDSPVECMGQEKGEFREIFYIIGAVVFVVIILVIILAISLHKCRKAGVGQSWKENSPLNVS
modifications: full-length relipidated in PS/PC vesicles
notes: recombinant, membrane-anchoring tissue factor; rTF/PCPS is rTF relipidated into 20 mol % PS, 80 mol % PC vesicles
affinity of VIIa for rTF/PCPS relative to sTF (VIIa [3]): approximately 100 fold
Kd (VIIa [3]; [7]): 0.04 ± 0.005 nM
Kd (VIIa [6]): < 0.05 nM
Concentration of TF that yields a 50 sec. clot time (pooled normal plasma [2]; PT assay): 0.7 ng/mL
